Measured values published in patent US12545659B2, “IRAK degraders and uses thereof” (Kymera Therapeutics, Inc., priority 2019, dated 2026).

Molecular target: T1, IRAK4 (Homo sapiens, UniProt Q9NWZ3)
T1 construct: endogenous in cells; host or cells: OCI-LY10
T1 sequence (Q9NWZ3 1-460): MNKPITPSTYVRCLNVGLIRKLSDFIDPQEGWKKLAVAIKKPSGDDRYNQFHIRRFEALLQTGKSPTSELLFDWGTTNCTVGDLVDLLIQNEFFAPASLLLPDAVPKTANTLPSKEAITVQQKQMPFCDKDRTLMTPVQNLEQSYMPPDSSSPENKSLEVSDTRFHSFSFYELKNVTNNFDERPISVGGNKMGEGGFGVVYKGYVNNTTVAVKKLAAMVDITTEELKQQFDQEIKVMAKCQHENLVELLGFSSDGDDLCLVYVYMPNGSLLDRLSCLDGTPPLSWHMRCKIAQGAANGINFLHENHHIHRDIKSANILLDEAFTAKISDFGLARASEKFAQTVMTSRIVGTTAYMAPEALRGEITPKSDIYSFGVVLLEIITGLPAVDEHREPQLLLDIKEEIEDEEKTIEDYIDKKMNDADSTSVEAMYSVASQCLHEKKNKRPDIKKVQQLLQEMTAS
Experiment: IRAK4 MSD Degradation in OCI-LY10
Format: cell-based
Conditions: OCI-LY10 cells, 4 hrs incubation, read-out: IRAK4 degradation in OCI-LY10 at 4 hrs: DC50
Procedure: Degradation of IRAK4 in OCI-LY10 was quantitatively measured using Meso Scale Discovery technology. […] Compounds were then added to the assay plates with a final top concentration of 1 to 10 μM in a 1:3 dilution series with total of 8 doses. The assay plates were then incubated for 4 to 24 hours at 37° C. under 5% C02. […] To prepare MSD assay plates (Meso Scale Discovery Catalog number L15XA-3), the plates were coated with […] capture antibody (mouse Anti-IRAK4 antibody [2H9], ab119942) in PBS, at 40 μL/well. […] Cell lysates were then added to MSD assay plates and the plates were incubated at room temperature for 1 hour. The plates were then washed 3 times with 150 μL/well TBST buffer and 25 μL/well primary detection antibody (rabbit Anti-IRAK4 antibody [Y279], from Abcam. Catalog number ab32511, 1 μg/mL). The assay plates were then incubated at room temperature for 1 hour, washed 3 times with 150 μL/well TBST buffer and 25 μL/well secondary detection antibody, SULFO-TAG anti-rabbit antibody were added (anti rabbit antibody from Meso Scale Discovery, Catalog number R32AB-1, 1 μg/mL). The assay plates were then incubated at room temperature for 1 hour, washed 3 times with 150 μL/well TBST buffer, and 150 μL/well MSD reading buffer (Meso Scale Discovery catalog number R92TC-2) was added. The plates were then analyzed by a MSD reader (Meso Scale Discovery, Model Quick Plex SQ 120). The data was then analyzed by software Prism 7.0 from GraphPad and the dose-depended IRAK4 degradation were fit using a three-parameter logistic equation to calculate DC50.
The letter codes for IRAK4 […] include: A (<0.05 μM); B (0.05-0.1 μM); C (0.1-0.5 μM); D (0.5-1.0 μM); and E (>1.0 μM).

Row | SMILES | DC50 [nM]
1 | Cn1c(=O)n(C2CCC(=O)NC2=O)c2ccc(N3CCN(C[C@H]4CC[C@H](n5cc6cc(NC(=O)c7cccc(C(F)(F)F)n7)c(C(F)F)cc6n5)CC4)CC3)cc21 (some centres unmarked) [I-149] | < 50
2 | Cn1c(=O)n(C2CCC(=O)NC2=O)c2cccc(C[C@H]3CC[C@H](N(C)C[C@H]4CC[C@H](n5cc6cc(NC(=O)c7cccc(C(F)(F)F)n7)c(C(F)F)cc6n5)CC4)CC3)c21 (some centres unmarked) [I-73] | 50 to 100
3 | COc1cc2nn([C@H]3CC[C@H](CN4CCC(CCCc5cccc6c5n(C)c(=O)n6C5CCC(=O)NC5=O)CC4)CC3)cc2cc1NC(=O)c1cnn2cccnc12 (some centres unmarked) [I-158] | < 50
4 | CN(C[C@H]1CC[C@H](n2cc3cc(NC(=O)c4cccc(C(F)(F)F)n4)c(C(F)F)cc3n2)CC1)C1CCN(c2ccc3c(c2)n(C)c(=O)n3C2CCC(=O)NC2=O)CC1 (some centres unmarked) [I-106] | < 50
5 | COc1cc2nn([C@H]3CC[C@H](CN4CCC5(CC4)CC(CCc4cccc6c4n(C)c(=O)n6C4CCC(=O)NC4=O)C5)CC3)cc2cc1NC(=O)c1cccc(C(F)(F)F)n1 (some centres unmarked) [I-259] | 50 to 100
6 | COc1cc2nn([C@H]3CC[C@H](CN(C)[C@H]4CC[C@@]5(CC4)C[C@@H](Cc4cccc6c4n(C)c(=O)n6C4CCC(=O)NC4=O)C5)CC3)cc2cc1NC(=O)c1cccc(C(F)(F)F)n1 (some centres unmarked) [I-152] | 50 to 100
7 | Cc1nc(C(=O)Nc2cc3cn([C@H]4CC[C@H](CN5CCC6(CC5)CC(CCc5cccc7c5n(C)c(=O)n7C5CCC(=O)NC5=O)C6)CC4)nc3cc2C(C)(C)O)ccc1F (some centres unmarked) [I-206] | < 50
8 | Cn1c(=O)n(C2CCC(=O)NC2=O)c2cccc(C[C@H]3CC[C@H](N(C)C[C@H]4CC[C@H](n5cc6cc(NC(=O)c7cccc(C(F)(F)F)n7)c(C(C)(C)O)cc6n5)CC4)CC3)c21 (some centres unmarked) [I-62] | < 50
9 | COc1cccc(C(=O)Nc2cc3cn([C@H]4CC[C@H](CN5CCC6(CC5)CC(CCc5cccc7c5n(C)c(=O)n7C5CCC(=O)NC5=O)C6)CC4)nc3cc2C(C)(C)O)n1 (some centres unmarked) [I-207] | 50 to 100
10 | COc1cc2nn([C@H]3CC[C@H](CN(C)C4CCN(c5cccc6c5n(C)c(=O)n6C5CCC(=O)NC5=O)CC4)CC3)cc2cc1NC(=O)c1ccc(F)c(C)n1 (some centres unmarked) [I-189] | < 50
11 | Cn1c(=O)n(C2CCC(=O)NC2=O)c2cccc(CCOC3CCN(C[C@H]4CC[C@H](n5cc6cc(NC(=O)c7cccc(C(F)(F)F)n7)c(C(F)F)cc6n5)CC4)CC3)c21 (some centres unmarked) [I-266] | 50 to 100
12 | COc1cc2nn([C@H]3CC[C@H](CN4C[C@H]5C[C@@H]4CN5c4cccc5c4n(C)c(=O)n5C4CCC(=O)NC4=O)CC3)cc2cc1NC(=O)c1cccc(C(F)(F)F)n1 (some centres unmarked) [I-281] | < 50
13 | COc1cc2nn([C@H]3CC[C@H](CN(C)C4CCC5(CC4)CC(Cc4cccc6c4n(C)c(=O)n6C4CCC(=O)NC4=O)C5)CC3)cc2cc1NC(=O)c1cccc(C(F)(F)F)n1 (some centres unmarked) [I-117] | 50 to 100
14 | Cn1c(=O)n(C2CCC(=O)NC2=O)c2cccc(CN3CC4(C3)CN(C(=O)[C@H]3CC[C@H](n5cc6cc(NC(=O)c7cccc(C(F)(F)F)n7)c(C(C)(C)O)cc6n5)CC3)C4)c21 (some centres unmarked) [I-45, N-[2-[4-[6-[[1-(2,6-dioxo-3-piperidyl)-3-methyl-2-oxo-benzimidazol-4-yl]methyl]-2,6-diazaspiro[3.3]heptane-2-carbonyl]cyclohexyl]-6-(1-hydroxy-1-methyl-ethyl)indazol-5-yl]-6-(trifluoromethyl)pyridine-2-carboxamide] | 50 to 100
15 | CN(C[C@H]1CC[C@H](n2cc3cc(NC(=O)c4cccc(C(F)(F)F)n4)c(N4CCOCC4)cc3n2)CC1)C1CCN(c2cccc3c2n(C)c(=O)n3C2CCC(=O)NC2=O)CC1 (some centres unmarked) [I-178] | < 50
16 | COc1cc2nn([C@H]3CC[C@H](CN4CCN(c5cccc6c5n(C)c(=O)n6C5CCC(=O)NC5=O)CC4)CC3)cc2cc1NC(=O)c1cccc(C(C)(C)F)n1 (some centres unmarked) [I-167] | 50 to 100
17 | Cn1c(=O)n(C2CCC(=O)NC2=O)c2cccc(CCCC3CCN(C[C@H]4CC[C@H](n5cc6cc(NC(=O)c7cccc(C(F)(F)F)n7)c(C(F)F)cc6n5)CC4)CC3)c21 (some centres unmarked) [I-300] | 50 to 100

Same assay, conditions: OCI-LY10 cells, 24 hrs incubation, read-out: IRAK4 degradation in OCI-LY10 at 24 hrs: DC50

Row | SMILES | DC50 [nM]
18 | COc1cc2nn([C@H]3CC[C@H](CN4CCO[C@@H](CCCNc5cccc6c5C(=O)N(C5CCC(=O)NC5=O)C6=O)C4)CC3)cc2cc1NC(=O)c1cccc(C(F)(F)F)n1 (some centres unmarked) [I-227] | 50 to 100
19 | COc1cc2nn([C@H]3CC[C@H](CN4CCO[C@H](CCCNc5cccc6c5C(=O)N(C5CCC(=O)NC5=O)C6=O)C4)CC3)cc2cc1NC(=O)c1cccc(C(F)(F)F)n1 (some centres unmarked) [I-68] | 50 to 100
20 | COc1cc2nn([C@H]3CC[C@H](CN(C)CCCO[C@H]4C[C@H](Nc5cccc6c5C(=O)N(C5CCC(=O)NC5=O)C6=O)C4)CC3)cc2cc1NC(=O)c1cccc(C(F)(F)F)n1 (some centres unmarked) [I-230] | 50 to 100
21 | COc1cc2nn([C@H]3CC[C@H](CN4CCC(CO[C@H]5C[C@H](Nc6cccc7c6C(=O)N(C6CCC(=O)NC6=O)C7=O)C5)CC4)CC3)cc2cc1NC(=O)c1cccc(C(C)(C)F)n1 (some centres unmarked) [I-140] | 50 to 100
22 | C[C@@]1(CN2CCC3(CC2)CC(CCNc2cccc4c2C(=O)N(C2CCC(=O)NC2=O)C4=O)C3)Cc2cc(NC(=O)c3cccc(C(F)(F)F)n3)c(N3CCOCC3)cc2O1 (stereo partly drawn) [I-319, N-((2S)-2-((2-(2-((2-(2,6-dioxopiperidin-3-yl)-1,3-dioxoisoindolin-4-yl)amino)ethyl)-7-azaspiro[3.5]nonan-7-yl)methyl)-2-methyl-6-morpholino-2,3-dihydrobenzofuran-5-yl)-6-(trifluoromethyl)picolinamide] | 500 to 1000
23 | CC(C)(O)c1cc2nn([C@H]3CC[C@H](CN4CCO[C@@H](CCNc5cccc6c5C(=O)N(C5CCC(=O)NC5=O)C6=O)C4)CC3)cc2cc1NC(=O)c1cccc(C(F)(F)F)n1 (some centres unmarked) [I-65] | < 50
24 | COc1cc2nn([C@H]3CC[C@H](CN4CCC5(CC4)CC(Nc4cccc6c4C(=O)N(C4CCC(=O)NC4=O)C6=O)C5)CC3)cc2cc1NC(=O)c1cccc(C(C)(C)F)n1 (some centres unmarked) [I-78] | 50 to 100
25 | CC(C)(O)c1cc2nc([C@H]3CC[C@H](CN4CCC5(CC4)CC(CCNc4cccc6c4C(=O)N(C4CCC(=O)NC4=O)C6=O)C5)CC3)oc2cc1NC(=O)c1cccc(C(F)(F)F)n1 (some centres unmarked) [I-182] | 500 to 1000
26 | COc1cc2c(cc1NC(=O)c1cccc(C(F)(F)F)n1)CN([C@H]1CC[C@H](CN3CC4(CC(CCNc5cccc6c5C(=O)N(C5CCC(=O)NC5=O)C6=O)C4)C3)CC1)C2=O (some centres unmarked) [I-331] | 50 to 100
27 | COc1cc2nn([C@H]3CC[C@H](CN(C)CCCO[C@H]4C[C@H](Nc5ccc6c(c5)C(=O)N(C5CCC(=O)NC5=O)C6=O)C4)CC3)cc2cc1NC(=O)c1cccc(C(F)(F)F)n1 (some centres unmarked) [I-77] | 50 to 100
28 | COc1cc2nn([C@H]3CC[C@H](CN(C)[C@H]4CC[C@H](CNc5cccc6c5C(=O)N(C5CCC(=O)NC5=O)C6=O)CC4)CC3)cc2cc1NC(=O)c1cccc(C(F)(F)F)n1 (some centres unmarked) [I-210] | 50 to 100
29 | CC(C)(O)COc1cc2nn([C@H]3CC[C@H](CN4CC5(CC(CCNc6cccc7c6C(=O)N(C6CCC(=O)NC6=O)C7=O)C5)C4)CC3)cc2cc1NC(=O)c1cccc(C(C)(F)F)n1 (some centres unmarked) [I-296] | 50 to 100
30 | CC(C)(C)c1cccc(C(=O)Nc2cc3cn([C@H]4CC[C@H](CN5CCC6(CC5)CC(Nc5cccc7c5C(=O)N(C5CCC(=O)NC5=O)C7=O)C6)CC4)nc3cc2C(C)(C)O)n1 (some centres unmarked) [I-249] | 50 to 100
31 | COc1cc2nn([C@H]3CC[C@H](CN4CC5(CC(CNc6cccc7c6C(=O)N(C6CCC(=O)NC6=O)C7=O)C5)C4)CC3)cc2cc1NC(=O)c1cccc(C(F)(F)F)n1 (some centres unmarked) [I-274] | 50 to 100
32 | COc1cc2nn([C@H]3CC[C@H](CN(C)[C@H]4CC[C@@]5(CC4)C[C@@H](CNc4cccc6c4C(=O)N(C4CCC(=O)NC4=O)C6=O)C5)CC3)cc2cc1NC(=O)c1cccc(C(F)(F)F)n1 (some centres unmarked) [I-317] | 50 to 100
33 | CC(F)(F)c1cccc(C(=O)Nc2cc3cn([C@H]4CC[C@H](CN5CC6(CC(CCNc7cccc8c7C(=O)N(C7CCC(=O)NC7=O)C8=O)C6)C5)CC4)nc3cc2OC2CC2)n1 (some centres unmarked) [I-200] | 50 to 100
34 | COc1c(NC(=O)c2cccc(C(C)(C)F)n2)cc2cn([C@H]3CC[C@H](CN4CC5(CC(CCNc6cccc7c6C(=O)N(C6CCC(=O)NC6=O)C7=O)C5)C4)CC3)nc2c1C (some centres unmarked) [I-315] | 50 to 100
35 | COc1cc2nc([C@H]3CC[C@H](CN4CCC5(CC4)CC(CCNc4cccc6c4C(=O)N(C4CCC(=O)NC4=O)C6=O)C5)CC3)oc2cc1NC(=O)c1cccc(C(F)(F)F)n1 (some centres unmarked) [I-137] | 100 to 500
